For four molecules, inhibition, pKa and IC50 results are on record in ChEMBL document CHEMBL3817830, “Discovery of a novel binding pocket for CYP 2C9 inhibitors: crystallography, pharmacophore modelling and inhibitor SAR” (Medchemcomm, 2016).

Structures are written as SMILES.

For one series, the target named is CYP2C9 (Homo sapiens, UniProt P11712). Description: Inhibition of CYP2C9 (unknown origin) at 3 uM. It counts as ADME.
Series [1] is described as follows: Dissociation constant, pKa of the compound. The format is physicochemical.
Another series addresses T1, Progesterone receptor (Homo sapiens, UniProt P06401).
T1 sequence (P06401 whole entry): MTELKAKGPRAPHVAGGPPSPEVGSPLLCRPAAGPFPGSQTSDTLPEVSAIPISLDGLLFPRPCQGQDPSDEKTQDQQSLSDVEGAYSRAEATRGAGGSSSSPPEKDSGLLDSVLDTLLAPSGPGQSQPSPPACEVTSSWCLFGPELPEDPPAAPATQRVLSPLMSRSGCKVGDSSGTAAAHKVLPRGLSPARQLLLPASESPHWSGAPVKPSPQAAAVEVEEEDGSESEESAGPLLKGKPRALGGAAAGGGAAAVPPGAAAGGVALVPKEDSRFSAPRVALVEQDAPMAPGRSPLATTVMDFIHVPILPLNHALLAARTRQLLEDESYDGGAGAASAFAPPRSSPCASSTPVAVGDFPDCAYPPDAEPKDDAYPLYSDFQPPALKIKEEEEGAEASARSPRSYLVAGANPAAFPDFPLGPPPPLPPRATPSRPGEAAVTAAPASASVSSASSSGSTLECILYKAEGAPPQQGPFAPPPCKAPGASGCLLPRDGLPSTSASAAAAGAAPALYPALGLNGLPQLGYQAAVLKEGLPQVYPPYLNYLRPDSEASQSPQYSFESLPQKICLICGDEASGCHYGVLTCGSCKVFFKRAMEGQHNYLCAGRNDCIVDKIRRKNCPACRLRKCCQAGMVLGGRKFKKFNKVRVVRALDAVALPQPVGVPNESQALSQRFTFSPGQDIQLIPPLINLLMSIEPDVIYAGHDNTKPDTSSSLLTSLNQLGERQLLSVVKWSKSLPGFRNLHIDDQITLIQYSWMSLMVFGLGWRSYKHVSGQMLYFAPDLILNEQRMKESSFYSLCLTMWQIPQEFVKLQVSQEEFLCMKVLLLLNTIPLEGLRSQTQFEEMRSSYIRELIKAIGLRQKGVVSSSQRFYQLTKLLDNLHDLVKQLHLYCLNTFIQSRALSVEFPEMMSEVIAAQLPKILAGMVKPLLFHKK
Description: Antagonist activity at PR (unknown origin).

What is called inhibition is the relative decrease from the control value, in per cent. A low value points to a response near the control. The pKa is the pH at which an ionisable group is half protonated. A low value points to a stronger acid or weaker base. By IC50 is commonly meant the concentration needed to halve the response being measured. Low values mean greater potency, high ones weaker potency.

Sequence of CYP2C9 (P11712 whole entry): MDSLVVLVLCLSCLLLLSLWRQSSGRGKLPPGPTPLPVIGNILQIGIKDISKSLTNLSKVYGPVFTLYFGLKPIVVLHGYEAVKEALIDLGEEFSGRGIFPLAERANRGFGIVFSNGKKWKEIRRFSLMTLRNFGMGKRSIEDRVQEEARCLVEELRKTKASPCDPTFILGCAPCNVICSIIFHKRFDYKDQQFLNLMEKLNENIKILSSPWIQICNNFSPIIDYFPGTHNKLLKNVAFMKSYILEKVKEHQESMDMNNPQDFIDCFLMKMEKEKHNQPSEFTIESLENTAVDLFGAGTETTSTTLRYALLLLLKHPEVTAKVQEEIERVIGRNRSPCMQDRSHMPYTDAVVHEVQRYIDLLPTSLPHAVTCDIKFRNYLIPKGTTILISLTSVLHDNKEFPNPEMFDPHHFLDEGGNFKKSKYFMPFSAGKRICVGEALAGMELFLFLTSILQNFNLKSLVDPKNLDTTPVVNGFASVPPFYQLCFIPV

The molecule `COc1cc(NS(=O)(=O)C(F)(F)F)cc(OC)c1Oc1ccc(C#N)c(Cl)c1` gave an inhibition at 3 µM on CYP2C9 of 95%. The same molecule yielded a pKa in series [1] of 4.5. On Progesterone receptor, it took 175 nM to reach half-maximal inhibition (IC50).

Take `N#Cc1ccc(O[C@H]2CC[C@H](NS(=O)(=O)C(F)(F)F)CC2)cc1Cl`: at CYP2C9, the inhibition at 3 µM is 77%. This molecule also gave an IC50 on Progesterone receptor of 43 nM.

Turning to `CS(=O)(=O)N[C@H]1CC[C@H](Oc2ccc(C#N)c(Cl)c2)CC1`, at CYP2C9, the inhibition at 3 µM was 0%. For the same molecule, on Progesterone receptor, half-maximal inhibition (IC50) was put at 107 nM.

For `COc1cc(NS(C)(=O)=O)cc(OC)c1Oc1ccc(C#N)c(Cl)c1`, at 3 µM the inhibition against CYP2C9 was 9%. This molecule also showed a pKa in series [1] of 8.5. For the same molecule, at Progesterone receptor, the half-inhibitory concentration (IC50) was 26 nM.
